The source made the active and inactive calls. The calls are words filed in the database; no cut-off is given here.
Target: Voltage-gated inwardly rectifying potassium channel KCNH2 (Homo sapiens, UniProt Q12809)
Experiment: Inhibition of human ERG

Voltage-gated inwardly rectifying potassium channel KCNH2, sequence (Q12809 whole entry): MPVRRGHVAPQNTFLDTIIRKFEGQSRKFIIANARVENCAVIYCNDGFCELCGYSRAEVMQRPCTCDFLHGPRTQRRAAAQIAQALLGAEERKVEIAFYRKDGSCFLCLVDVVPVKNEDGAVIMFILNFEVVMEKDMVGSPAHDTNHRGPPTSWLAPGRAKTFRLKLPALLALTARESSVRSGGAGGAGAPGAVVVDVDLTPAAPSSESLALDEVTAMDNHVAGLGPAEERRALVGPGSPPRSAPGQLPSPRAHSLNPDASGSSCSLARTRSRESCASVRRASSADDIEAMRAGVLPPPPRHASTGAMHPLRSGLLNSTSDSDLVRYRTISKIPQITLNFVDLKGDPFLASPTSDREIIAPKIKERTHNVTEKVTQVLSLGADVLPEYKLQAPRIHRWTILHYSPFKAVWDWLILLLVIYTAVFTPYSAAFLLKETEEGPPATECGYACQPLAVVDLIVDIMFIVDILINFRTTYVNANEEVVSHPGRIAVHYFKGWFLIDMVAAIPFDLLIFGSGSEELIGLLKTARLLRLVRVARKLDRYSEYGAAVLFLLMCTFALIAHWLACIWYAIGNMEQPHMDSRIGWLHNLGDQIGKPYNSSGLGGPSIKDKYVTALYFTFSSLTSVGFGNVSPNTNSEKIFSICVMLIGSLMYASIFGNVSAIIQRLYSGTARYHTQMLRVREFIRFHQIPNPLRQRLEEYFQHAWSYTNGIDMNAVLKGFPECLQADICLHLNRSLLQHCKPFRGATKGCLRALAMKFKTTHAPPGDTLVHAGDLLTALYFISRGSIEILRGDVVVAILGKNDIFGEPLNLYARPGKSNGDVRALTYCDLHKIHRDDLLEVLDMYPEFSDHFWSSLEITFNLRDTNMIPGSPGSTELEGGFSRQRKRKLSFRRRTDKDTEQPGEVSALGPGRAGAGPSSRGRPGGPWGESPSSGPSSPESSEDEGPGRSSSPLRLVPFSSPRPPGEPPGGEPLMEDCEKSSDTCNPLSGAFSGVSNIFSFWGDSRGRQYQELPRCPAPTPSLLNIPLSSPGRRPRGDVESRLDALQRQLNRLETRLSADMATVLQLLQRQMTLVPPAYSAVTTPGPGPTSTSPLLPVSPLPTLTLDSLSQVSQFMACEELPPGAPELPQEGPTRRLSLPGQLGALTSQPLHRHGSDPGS

With `Cc1noc(NC(=O)N2CCC3(CC2)CC(c2cccc(Oc4ccc(C(F)(F)F)cn4)c2)C3)c1C` the “inhibition (INH)” value was “Active”.
`O=C(Nc1cccnn1)N1CCC2(CC1)CC(c1cccc(Oc3ccc(C(F)(F)F)cn3)c1)C2` was tested, and the “inhibition (INH)” value was “Active”.
`O=C(Nc1cccnn1)N1CCC2(CC1)C[C@H](c1cccc(Oc3ccc(C(F)(F)F)cn3)c1)CO2` was tested, and the “inhibition (INH)” value was “Active”.

Test system: Rattus norvegicus
Experiment: Analgesic activity against complete Freund's adjuvant-induced pain in rat at 25 mg/kg, ip
Format: functional, organism-based
Set-up: dose 25 mg/kg

For `Cc1noc(NC(=O)N2CCC3(CC2)CC(c2cccc(Oc4ccc(C(F)(F)F)cn4)c2)C3)c1C`, the Activity was “Active”.

Target: T1, Fatty-acid amide hydrolase 1 (Homo sapiens) (UniProt O00519)
T1 sequence (whole entry): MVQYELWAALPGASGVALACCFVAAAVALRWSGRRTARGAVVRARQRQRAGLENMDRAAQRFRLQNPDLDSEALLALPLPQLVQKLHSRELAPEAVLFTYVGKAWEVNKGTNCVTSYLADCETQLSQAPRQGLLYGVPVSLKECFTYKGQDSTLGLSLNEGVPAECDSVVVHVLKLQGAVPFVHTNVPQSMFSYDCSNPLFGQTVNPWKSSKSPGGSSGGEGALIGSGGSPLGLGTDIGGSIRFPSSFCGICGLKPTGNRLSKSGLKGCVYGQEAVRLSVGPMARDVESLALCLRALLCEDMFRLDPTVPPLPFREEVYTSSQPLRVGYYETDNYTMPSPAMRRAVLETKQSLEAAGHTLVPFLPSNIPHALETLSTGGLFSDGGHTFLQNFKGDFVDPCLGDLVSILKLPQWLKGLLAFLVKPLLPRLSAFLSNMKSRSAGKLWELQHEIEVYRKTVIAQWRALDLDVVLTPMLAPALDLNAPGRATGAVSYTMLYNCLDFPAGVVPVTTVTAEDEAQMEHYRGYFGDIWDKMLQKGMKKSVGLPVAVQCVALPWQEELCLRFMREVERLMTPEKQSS
Experiment: Ratio of Kinact to Ki for human FAAH by enzyme coupled assay

`O=C(Nc1cccnn1)N1CCC2(CC1)CC(CCc1cccc(Oc3ccc(C(F)(F)F)cn3)c1)C2` and `O=C(Nc1cccnn1)N1CCC2(CC1)CC(Cc1cccc(Oc3ccc(C(F)(F)F)cn3)c1)C2` are within 1.5-fold of each other in Ratio: 344 M⁻¹ s⁻¹ for the first, 272 M⁻¹ s⁻¹ for the second.

First: O=C(Nc1cccnn1)N1CCC2(CCC(c3cccc(Oc4ccc(C(F)(F)F)cn4)c3)O2)CC1 (stereo not drawn)
Second: O=C(Nc1cccnn1)N1CCC2(CC1)C[C@@H](c1cccc(Oc3ccc(C(F)(F)F)cn3)c1)CO2
The Ratio of the first is 5.9-fold lower: 229 M⁻¹ s⁻¹ for the first, 1340 M⁻¹ s⁻¹ for the second.

Compared with `O=C(Nc1cccnc1)N1CCC2(CC1)CC(c1cccc(Oc3ccc(C(F)(F)F)cn3)c1)CO2` (stereo not drawn), `O=C(Nc1cccnc1)N1CCC2(CC1)CC(c1cccc(Oc3ccc(C(F)(F)F)cn3)c1)C2` is 2.3-fold lower in Ratio: 2080 M⁻¹ s⁻¹ for the first, 914 M⁻¹ s⁻¹ for the second.

Compared with `Cc1noc(NC(=O)N2CCC3(CC2)CC(c2cccc(Oc4ccc(C(F)(F)F)cn4)c2)CO3)c1C` (stereo not drawn), `Cc1noc(NC(=O)N2CCC3(CC2)CC(c2cccc(Oc4ccc(C(F)(F)F)cn4)c2)C3)c1C` is 3.4-fold higher in Ratio: 515 M⁻¹ s⁻¹ for the first, 1760 M⁻¹ s⁻¹ for the second.

Going from `O=C(Nc1cccnc1)N1CCC2(CC1)CC(Cc1cccc(Oc3ccc(C(F)(F)F)cn3)c1)CO2` (stereo not drawn) to `O=C(Nc1cccnn1)N1CCC2(CC1)CC(c1cccc(Oc3ccc(C(F)(F)F)cn3)c1)CO2` (racemic), the Ratio rises from 846 M⁻¹ s⁻¹ to 3130 M⁻¹ s⁻¹ (3.7-fold).

Compared with `O=C(Nc1cccnn1)N1CCC2(CC1)CN(c1cccc(Oc3ccc(C(F)(F)F)cn3)c1)C2`, `O=C(Nc1cccnn1)N1CCC2(CC1)CC(c1cccc(Oc3ccc(C(F)(F)F)cn3)c1)C2` is 86-fold higher in Ratio: 18.3 M⁻¹ s⁻¹ for the first, 1570 M⁻¹ s⁻¹ for the second.

First: O=C(Nc1cccnn1)N1CCC2(CCC(c3cccc(Oc4ccc(C(F)(F)F)cn4)c3)C2)CC1 (stereo not drawn)
Second: O=C(Nc1cccnn1)N1CCC2(CC1)C[C@H](c1cccc(Oc3ccc(C(F)(F)F)cn3)c1)CO2
The Ratio of the first is 9.9-fold lower: 307 M⁻¹ s⁻¹ for the first, 3040 M⁻¹ s⁻¹ for the second.

From ChEMBL document CHEMBL1914405, “Discovery of novel spirocyclic inhibitors of fatty acid amide hydrolase (FAAH). Part 1: identification of 7-azaspiro[3.5]nonane and 1-oxa-8-azaspiro[4.5]decane as lead scaffolds” (Bioorg Med Chem Lett, 2011)
